Residues, ends and D or L forms follow the SMILES beside them. *: point of attachment. X1 = O=C1CCC(N2C(=O)c3cccc(*)c3C2=O)C(=O)N1; PEG4 = NCCOCCOCCOCCOCCC(=O)O
Target: T1, FoxP3 (Homo sapiens, UniProt Q9BZS1)
T1 construct: endogenous in cells; host or cells: human PBMC (CD4+ gated)
T1 sequence (Q9BZS1 1-431): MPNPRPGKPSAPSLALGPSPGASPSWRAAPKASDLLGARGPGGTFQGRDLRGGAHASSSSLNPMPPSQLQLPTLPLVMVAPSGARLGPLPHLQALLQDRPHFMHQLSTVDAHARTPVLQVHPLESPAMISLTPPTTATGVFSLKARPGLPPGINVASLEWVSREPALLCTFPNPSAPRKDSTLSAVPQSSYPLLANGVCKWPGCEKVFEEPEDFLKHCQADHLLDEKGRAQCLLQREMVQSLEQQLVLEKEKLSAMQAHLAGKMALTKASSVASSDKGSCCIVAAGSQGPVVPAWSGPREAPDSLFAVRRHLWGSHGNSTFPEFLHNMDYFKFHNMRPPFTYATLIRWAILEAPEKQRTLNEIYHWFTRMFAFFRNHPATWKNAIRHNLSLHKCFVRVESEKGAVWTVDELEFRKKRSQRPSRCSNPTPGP
Test: FoxP3 expression in CD4+ human PBMC, flow cytometry
Format: cell-based
Details: 10 μM, 3 days, PMA 10 ng/ml and Ionomycin 2 μg/ml, difference to P60 not significant
Procedure: FIGS. 7A-7C depict that PF decreases FoxP3 and the immunosuppressive function of human CD4+ cells. Human peripheral blood mononuclear cells (PBMC) were treated in vitro with PF (10 μM) or various control drugs (10 μM) for 3 days (FIG. 7A). PMA 10 ng/ml and Ionomycin 2 μg/ml were added during PF treatment to induce FoxP3 (FIG. 7A). Resulting cells were gated on CD4 and assessed for FoxP3 expression by flow cytometry. To treat Tregs, CD4+ PBMC were isolated and treated with PF or various controls for 72 hours. […] CD8 proliferation was measured using a CFSE dilution assay. To assess CD8+ effector cells, CD4 negative splenocytes were CFSE labeled and CFSE dilution was measured in CD8+ cells by flow cytometry (FIG. 7B). In the same experiment, CD8+ cells were assessed for activation by gating on CD8 and assessing IFNγ or TNFα by flow cytometry (FIG. 7C). […]
Human peripheral blood mononuclear cells (PBMC) were treated with phorbol 12-myristate 13-acetate (PMA) (10 ng/ml) and Ionomycin (2 μg/ml) to increase FoxP3 expression. […] CD8 proliferation was measured using a CFSE dilution assay. Immune activation was assessed by measuring TNFα or IFNγ in CD8+ or CD4+ T cells using flow cytometry.
P60 was designed to bind both mouse and human FoxP3. Therefore, we evaluated PF using human peripheral blood mononuclear cells (PBMC). […] Resulting cells were gated on CD4 and assessed for FoxP3 expression by flow cytometry. […]

For CSCC[C@H](NC(=O)[C@H](C)NC(=O)[C@H](Cc1ccccc1)NC(=O)[C@H](Cc1ccccc1)NC(=O)[C@@H]1CCCN1C(=O)[C@H](Cc1c[nH]c2ccccc12)NC(=O)[C@H](CCSC)NC(=O)[C@H](CCCCN)NC(=O)[C@H](CCCNC(=N)N)NC(=O)[C@H](Cc1ccccc1)NC(=O)[C@H](CO)NC(=O)[C@H](CCC(N)=O)NC(=O)[C@H](Cc1ccccc1)NC(=O)[C@H](CC(=O)O)NC(=O)[C@H](CCCNC(=N)N)NC(=O)CCOCCOCCOCCOCCNc1cccc2c1C(=O)N(C1CCC(=O)NC1=O)C2=O)C(=O)O (stereo partly shown) [PF, Pomalidomide-PEG4-RDFQSFRKMWPFFAM] ({X1-PEG4}-RDFQSFRKMWPFFAM-OH), the “percent of CD4+ cells expressing FoxP3” value was “decreased the percent of CD4+ cells expressing FoxP3 when compared to control”.

— patent US20250049930A1, “PROTAC MOLECULES TARGETING FOXP3 AND USES THEREOF” (CEDARS-SINAI MEDICAL CENTER, priority 2022, published 2025)
